Assay results: ChEMBL document CHEMBL1201862, “PubChem BioAssay data set” (2004)
Structures can show the parent of a compound that is named as a salt. The source made the active and inactive calls.

How the values were obtained:
[1] = T. cruzi growth inhibition in host cells, dose response, cell-based, plate reader, dry powder, set 2 (AID 652275); type: functional
[2] = Trypanosoma cruzi replication inhibitors in host cells – cell-based, plate reader, dry powder samples, dose response (AID 651845); type: functional
[3] = intracellular Trypanosoma cruzi inhibitors in host cells – cell-based, plate reader, cherry-pick samples, set 3, dose response (AID 651818); type: functional;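 also: compounds incubated with infected cells for about four days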
[4] = anti-trypanosomal activity in BESM host cells – imaging, CA-I/72 strain, bovine embryo skeletal muscle, dry powder, dose response (AID 651885); type: functional, cell-based
[5] = target: T1, Oxysterols receptor LXR-beta (Homo sapiens, UniProt P55055); type: functional, cell-based;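 also: Cell-based luminescence dose-response assay of agonist activity at LXR, run as a confirmatory counterscreen to a daf-12 agonist screen; agonist potency from rising luciferase signal of a Gal4-LXR reporter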
T1 sequence (P55055 whole entry): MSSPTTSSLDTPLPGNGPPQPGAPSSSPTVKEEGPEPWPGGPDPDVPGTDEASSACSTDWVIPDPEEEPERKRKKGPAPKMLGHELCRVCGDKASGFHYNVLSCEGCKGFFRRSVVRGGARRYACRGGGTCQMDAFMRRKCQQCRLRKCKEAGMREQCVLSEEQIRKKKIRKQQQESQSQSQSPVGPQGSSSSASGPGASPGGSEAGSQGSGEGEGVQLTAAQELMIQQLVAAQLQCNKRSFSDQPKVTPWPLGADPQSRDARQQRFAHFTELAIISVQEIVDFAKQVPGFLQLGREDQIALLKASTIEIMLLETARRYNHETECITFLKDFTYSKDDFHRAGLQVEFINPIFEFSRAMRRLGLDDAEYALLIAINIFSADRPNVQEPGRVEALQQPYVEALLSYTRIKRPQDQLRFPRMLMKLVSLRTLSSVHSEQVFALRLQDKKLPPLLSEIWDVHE

[6] = cells
[7] = Luminescence-based cell-based high throughput dose response assay to identify activators of the DAF-12 from the parasite S. stercoralis (ssDAF-12).; type: functional
[8] = target: T1, Oxysterols receptor LXR-beta; assay: LXR agonists, Gal4 luciferase reporter, dose response, counter-screen for ssDAF-12 agonist project, cell-based, luminescence, HEK293, S. stercoralis campaign (AID 720737); type: functional; conditions: read-out: IC50 (the source's name)
[9] = OVCAR8 cell viability loss – plate reader, dry powder samples, PAX8 project, dose response (AID 743197); type: functional, cell-based; conditions: OVCAR-8
[10] = target: Paired box protein Pax-8 (Homo sapiens, UniProt Q06710); assay: PAX8 transcriptional activity inhibition in RMG-I – RMG-I cells, luciferase, cherry-pick, dose response (AID 687027); type: functional, cell-based;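 also: luciferase reporter driven by Pax8 target thyroperoxidase promoter measured by SteadyGlo luminescence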
[11] = HIV-1 AD8 envelope cell-cell fusion blockers – cherry-pick, dose response (AID 652062); type: functional, cell-based;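 also: luciferase signal from cell-cell fusion driven by HIV-1 clade B AD8 Env; potency is for inhibitors of fusion seen as a drop in luminescence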
[12] = blockers of HIV-1 envelope-mediated cell-cell fusion – cherry-pick, dose response (AID 652057); type: functional, cell-based
[13] = general mammalian cell viability loss – activator set, cherry-pick, cytotoxicity control for miR-122 modulator project, dose response (AID 720690); type: functional, cell-based;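 also: HEK293T human cells scored for general mammalian cytotoxicity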
[14] = OVCAR-3 cell viability loss – plate reader, dry powder samples, PAX8 inhibitor project, dose response (AID 743044); type: functional, cell-based
[15] = target: Potassium channel subfamily K member 9 (Homo sapiens, UniProt Q9NPC2); assay: KCNK9 flux blockade, concentration-response – cell-based, FluxOR thallium flux, selectivity assay for TASK1 inhibitor project, SAR follow-up (AID 652211); type: functional;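 also: potency is for inhibitors of the channel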
[16] = target: Potassium channel subfamily K member 3 (Homo sapiens, UniProt O14649); assay: inhibition of human KCNK3 channel flux – CHO cells, FluxOR thallium flux, SAR follow-up (AID 652212); type: functional
[17] = cells; type: functional, cell-based
[18] = cells; type: functional, cell-based; remark: listed apart in the source
[19] = target: T2, Trace amine-associated receptor 1 (Homo sapiens, UniProt Q96RJ0); assay: Counterscreen for agonists of the human trace amine associated receptor 1 (hTAAR1): Fluorescence-based cell-based high throughput dose response assay to identify hTAAR1 agonist that also desensitize TAAR1 receptor response.; type: functional
T2 sequence (Q96RJ0 whole entry): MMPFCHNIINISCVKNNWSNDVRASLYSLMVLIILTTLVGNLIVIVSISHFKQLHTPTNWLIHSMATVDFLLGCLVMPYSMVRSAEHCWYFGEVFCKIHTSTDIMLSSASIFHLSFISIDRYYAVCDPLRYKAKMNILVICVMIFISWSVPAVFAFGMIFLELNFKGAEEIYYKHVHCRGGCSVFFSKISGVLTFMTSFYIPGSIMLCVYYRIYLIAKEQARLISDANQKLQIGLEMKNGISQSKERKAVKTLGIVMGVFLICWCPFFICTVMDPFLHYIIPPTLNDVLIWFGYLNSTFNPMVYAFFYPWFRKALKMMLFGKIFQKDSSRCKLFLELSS

[20] = target: T2, Trace amine-associated receptor 1; assay: Fluorescence-based cell-based high throughput dose response assay to identify agonists of the human trace amine associated receptor 1 (TAAR1).; type: functional
[21] = target: Disintegrin and metalloproteinase domain-containing protein 17 (Homo sapiens, UniProt P78536); assay: exosite inhibitors of ADAM17, dose response, biochemical (AID 743260)
[22] = blockers of HIV-1 ZM109 envelope-driven cell-cell fusion – HeLa effector, CEM target cells, luciferase, cherry-pick, dose response (AID 652058); type: functional, cell-based;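 also: luciferase signal from HIV-1 Env mediated cell-cell fusion of effector and target cells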
[23] = off-target signal loss in HeLa-CEM21 co-culture – HeLa F-luc CTL cells, cherry-picked, counter-screen for HIV-1 Env fusion inhibitor project, dose response (AID 652040); type: functional, cell-based;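 also: potency for signal decrease marking cytotoxic or nonspecific inhibition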
[24] = tested on: HEK293; assay: EBV LMP1 TES2 canonical NF-kB signalling blockers – cell-based, HEK293, luciferase, cherry-pick, dose response (AID 588343); type: functional; conditions: Homo sapiens
[25] = target: T3, Streptokinase A (Streptococcus pyogenes serotype M1, UniProt P10520); assay: viability-normalized secreted streptokinase activity reduction – plasminogen activation absorbance, OD405, dose response (AID 1914); type: functional, Streptococcus pyogenes M1 GAS;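 also: secreted streptokinase activity via plasminogen activation per viability signal from cell pellet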
T3 sequence (P10520 whole entry): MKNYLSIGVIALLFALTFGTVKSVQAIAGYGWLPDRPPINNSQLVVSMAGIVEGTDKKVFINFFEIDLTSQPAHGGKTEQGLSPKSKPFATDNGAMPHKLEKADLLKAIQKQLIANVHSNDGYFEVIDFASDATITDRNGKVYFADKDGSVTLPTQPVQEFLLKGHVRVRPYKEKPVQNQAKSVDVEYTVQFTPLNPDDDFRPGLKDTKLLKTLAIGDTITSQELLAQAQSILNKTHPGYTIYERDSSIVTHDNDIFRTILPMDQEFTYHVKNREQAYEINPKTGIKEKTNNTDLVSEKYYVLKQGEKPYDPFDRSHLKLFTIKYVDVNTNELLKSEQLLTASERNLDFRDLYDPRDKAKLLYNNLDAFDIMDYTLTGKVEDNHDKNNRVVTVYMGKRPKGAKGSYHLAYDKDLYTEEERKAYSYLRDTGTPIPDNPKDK

[26] = tested on: Streptococcus sp. 'group A'; assay: Streptococcus pyogenes SK(-)GAS viability under kanamycin – luminescence, BacTiterGlo, confirmation, counter-screen for streptokinase expression inhibitor project, dose response (AID 1900); type: functional, organism-based
[27] = viability of uninfected HEp-2 cells – cell-based, HTS, cytotoxicity control for RSV inhibitor project, dose response (AID 2410); type: functional; conditions: human respiratory syncytial virus
[28] = tested on: Streptococcus; assay: GAS UMAA2166 growth inhibition – luminescence, BacTiterGlo, counter-screen for streptokinase expression inhibitor project, dose response (AID 1915); type: functional, organism-based;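 also: potency for reduction of bacterial viability or growth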
[29] = target: T4, Beta-2 adrenergic receptor (Homo sapiens, UniProt P07550); assay: Dose response for HTS for Beta-2AR agonists via FAP method from Powderset3.; type: functional
[30] = target: T4, Beta-2 adrenergic receptor; assay: ADRB2 activation measured by internalization – cell-based, FAP fluorogen, flow cytometry, cherry pick 1, dose response (AID 588763); type: functional
[31] = viability loss in human Jurkat cells – cell-based, luminescence, cytotoxicity control for P. falciparum gametocyte viability project, dose response (AID 1117277); type: functional;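 also: potency reflects loss of cellular ATP meaning fewer viable cells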
[32] = viability inhibitors of stage V gametocytes – luminescence, dose response (AID 1117278); type: functional, cell-based;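 also: gametocytes exposed to compound for 24 hours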
[33] = inhibition of ADAM10 peptide cleavage – biochemical, FRET peptide substrate, recombinant human ADAM10, selectivity assay for ADAM17 exosite inhibitor project, dose response (AID 743259);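 also: ADAM10 enzyme cleaving a FRET peptide substrate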
[34] = potency of ADAM10 substrate cleavage blockers – biochemical, QFRET, dose response (AID 743254);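 also: ADAM10 enzyme with the DM2 quenched FRET peptide as substrate; EDANS fluorescence gain as the protease cuts the substrate; inhibitor potency against ADAM10 proteolytic activity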
[35] = tested on: INS1; assay: INS-1E survival protection against cytokine death – cell-based, luminescence, retest, dose response (AID 449756); type: functional; conditions: Rattus norvegicus;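 also: cell death triggered by IL-1 beta plus TNF-alpha plus IFN-gamma mixture; protective hits raise ATP signal compared with cytokine alone wells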
[36] = viability loss in CEM21 cells – cell-based, CellTiter-Glo luminescence, cherry-picked, cytotoxicity control for viral fusion inhibitor project, dose response (AID 652042); type: functional;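 also: potency for signal decrease meaning cytotoxicity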

T4 sequence (P07550 whole entry): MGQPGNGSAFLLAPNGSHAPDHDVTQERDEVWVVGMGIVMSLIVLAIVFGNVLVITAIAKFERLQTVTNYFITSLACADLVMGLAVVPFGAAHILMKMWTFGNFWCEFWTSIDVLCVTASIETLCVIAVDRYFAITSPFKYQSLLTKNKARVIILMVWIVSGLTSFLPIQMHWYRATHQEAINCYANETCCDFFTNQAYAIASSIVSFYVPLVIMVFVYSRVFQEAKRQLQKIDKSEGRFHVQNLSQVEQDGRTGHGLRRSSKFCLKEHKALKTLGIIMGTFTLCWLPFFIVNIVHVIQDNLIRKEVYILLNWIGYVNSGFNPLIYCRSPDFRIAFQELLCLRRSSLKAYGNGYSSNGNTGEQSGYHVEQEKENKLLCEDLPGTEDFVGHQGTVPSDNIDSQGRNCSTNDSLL
Chain of Disintegrin and metalloproteinase domain-containing protein 17 (P78536 whole entry, the tested form may be a part): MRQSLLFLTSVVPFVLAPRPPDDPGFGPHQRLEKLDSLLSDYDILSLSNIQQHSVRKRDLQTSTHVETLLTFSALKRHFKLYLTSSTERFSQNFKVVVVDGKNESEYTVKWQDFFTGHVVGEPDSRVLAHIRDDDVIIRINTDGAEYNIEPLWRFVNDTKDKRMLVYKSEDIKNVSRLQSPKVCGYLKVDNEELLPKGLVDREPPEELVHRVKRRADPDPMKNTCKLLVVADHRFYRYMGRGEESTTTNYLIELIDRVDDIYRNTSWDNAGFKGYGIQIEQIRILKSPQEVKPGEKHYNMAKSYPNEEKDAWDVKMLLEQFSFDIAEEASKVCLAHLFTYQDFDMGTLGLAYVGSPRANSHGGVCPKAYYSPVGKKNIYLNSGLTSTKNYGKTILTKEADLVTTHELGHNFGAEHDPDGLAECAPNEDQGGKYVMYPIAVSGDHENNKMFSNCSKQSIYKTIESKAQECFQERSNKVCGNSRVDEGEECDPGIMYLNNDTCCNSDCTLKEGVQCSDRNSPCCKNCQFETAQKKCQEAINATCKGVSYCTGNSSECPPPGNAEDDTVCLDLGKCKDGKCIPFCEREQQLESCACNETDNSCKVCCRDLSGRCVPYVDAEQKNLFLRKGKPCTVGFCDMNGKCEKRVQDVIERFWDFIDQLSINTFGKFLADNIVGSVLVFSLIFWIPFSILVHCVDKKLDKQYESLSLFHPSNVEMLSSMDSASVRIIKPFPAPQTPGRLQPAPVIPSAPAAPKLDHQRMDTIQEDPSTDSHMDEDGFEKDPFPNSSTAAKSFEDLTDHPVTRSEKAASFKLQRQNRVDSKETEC
Chain of Paired box protein Pax-8 (Q06710 whole entry, the tested form may be a part): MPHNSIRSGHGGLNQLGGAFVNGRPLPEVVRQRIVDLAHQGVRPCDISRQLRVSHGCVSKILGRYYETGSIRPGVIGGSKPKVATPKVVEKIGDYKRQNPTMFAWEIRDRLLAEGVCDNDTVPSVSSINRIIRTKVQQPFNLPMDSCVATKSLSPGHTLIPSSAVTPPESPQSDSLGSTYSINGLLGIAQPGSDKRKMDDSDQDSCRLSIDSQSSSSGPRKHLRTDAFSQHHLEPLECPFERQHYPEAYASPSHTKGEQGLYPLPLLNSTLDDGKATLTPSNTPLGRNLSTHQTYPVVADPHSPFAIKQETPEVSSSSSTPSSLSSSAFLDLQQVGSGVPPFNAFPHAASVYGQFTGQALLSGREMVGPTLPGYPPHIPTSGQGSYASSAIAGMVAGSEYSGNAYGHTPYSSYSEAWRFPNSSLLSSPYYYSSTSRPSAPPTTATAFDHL
Chain of Potassium channel subfamily K member 3 (O14649 whole entry): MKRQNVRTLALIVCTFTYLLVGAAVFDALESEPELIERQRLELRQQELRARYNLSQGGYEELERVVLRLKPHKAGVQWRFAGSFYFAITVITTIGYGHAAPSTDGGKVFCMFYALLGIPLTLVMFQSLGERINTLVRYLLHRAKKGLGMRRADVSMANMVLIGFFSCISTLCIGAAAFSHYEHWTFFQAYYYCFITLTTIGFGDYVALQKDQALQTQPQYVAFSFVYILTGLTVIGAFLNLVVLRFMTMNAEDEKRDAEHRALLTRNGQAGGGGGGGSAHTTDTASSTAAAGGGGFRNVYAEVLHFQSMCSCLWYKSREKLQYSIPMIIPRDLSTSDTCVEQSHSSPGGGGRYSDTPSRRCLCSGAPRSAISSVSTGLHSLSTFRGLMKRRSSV
Chain of Potassium channel subfamily K member 9 (Q9NPC2 whole entry): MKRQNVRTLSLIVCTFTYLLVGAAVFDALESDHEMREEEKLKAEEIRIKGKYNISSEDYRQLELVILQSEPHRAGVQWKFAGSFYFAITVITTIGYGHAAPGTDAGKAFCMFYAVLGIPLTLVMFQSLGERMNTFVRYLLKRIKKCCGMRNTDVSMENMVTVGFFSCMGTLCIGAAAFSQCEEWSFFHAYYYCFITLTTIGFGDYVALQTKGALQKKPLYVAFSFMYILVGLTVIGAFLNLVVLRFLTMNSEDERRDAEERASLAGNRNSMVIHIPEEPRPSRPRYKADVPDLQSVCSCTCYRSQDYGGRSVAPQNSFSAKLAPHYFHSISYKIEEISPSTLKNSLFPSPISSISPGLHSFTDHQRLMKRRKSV

C[C@@H]1CN([C@H](C)CO)C(=O)c2cccc(NC(=O)c3ccncc3)c2O[C@H]1CN(C)Cc1ccc(C(F)(F)F)cc1
AC50 [1]: 0.0647 µM (active)
AC50 [2]: 0.0597 µM (active)
AC50 [3]: 0.344 µM (active)
IC50 [4]: 0.048 µM (active)

CC(C)(C)NC(=O)C(c1cc2ccccc2o1)n1c(-c2ccc(-c3ccccc3)cc2)nc2ccccc21 (configuration not stated)
EC50 [5]: > 67.6 µM (inactive)
EC50 [6]: > 67.6 µM (inactive)
IC50 [7]: > 67.6 µM (inactive)
EC50 [8]: > 67.6 µM (inactive)

COc1ccc(S(=O)(=O)Nc2ccc3c(c2)CC(=O)N([C@@H](C)CO)C[C@@H](C)[C@H](CN(C)Cc2ccc(C(F)(F)F)cc2)O3)cc1
AC50 [9]: 29.5 µM (active)
AC50 [10]: 6.77 µM (active)
AC50 [11]: 18.5 µM (active)
AC50 [12]: 13.4 µM (active)
AC50 [13]: 25.5 µM (active)
AC50 [14]: 24.4 µM (active)

O=C(CSc1nc2nncc-2c(O)[nH]1)Nc1nccs1
IC50 [7]: > 67.6 µM (inactive)
EC50 [8]: > 67.6 µM (inactive)

Cc1cccc(C(=O)Nc2cccc(NC(=O)c3ccccc3C(F)(F)F)c2)c1
IC50 [15]: 12.9 µM (active)

O=C(Nc1cccc(NC(=O)c2ccccc2)c1)c1ccccc1
IC50 [16]: 0.024 µM (active)

O=C(Cc1nnc(NC(=O)Nc2ccccc2)s1)NCc1ccccc1
IC50 [17]: > 29.9 µM (inactive)
EC50 [18]: > 29.9 µM (inactive)
IC50 [19]: > 29.9 µM (inactive)
EC50 [20]: > 29.9 µM (inactive)

C[C@H](NC(=O)c1nc[nH]c1C(=O)NC(c1ccccc1)c1ccccc1)C(=O)OCc1ccccc1
IC50 [21]: > 69.5 µM (inactive)

O=C1CCCCC1Sc1nnc(-c2ccc3c(c2)OCO3)o1 (configuration not stated)
AC50 [22]: 41.9 µM (active)
AC50 [23]: 12.3 µM (active)
AC50 [11]: 6.84 µM (active)
AC50 [12]: 2.73 µM (active)
AC50 [24]: 0.841 µM (active)

c1ccc(CC2=NCCN2)cc1 [TOLAZOLINE HYDROCHLORIDE]
IC50 [17]: > 29.9 µM (inactive)
EC50 [18]: > 29.9 µM (inactive)
IC50 [19]: 4.74 µM (active)
EC50 [20]: 1.01 µM (active)

CC(Oc1ccc(Cl)cc1Cl)c1nc(-c2ccc(NC(=O)c3ccco3)cc2)no1 (configuration not stated)
EC50 [25]: > 150 µM (not active)
EC50 [26]: 21.7 µM (active)
CC50 [27]: 20.2 µM (active)
EC50 [28]: 25.7 µM (active)
EC50 [29]: 0.204 µM (active)
EC50 [30]: 7.06 µM (active)
IC50 [31]: > 83.3 µM (inactive)
IC50 [32]: > 109 µM (inactive)

O=C(Nc1cccc(Cl)c1)OCCOCCOC(=O)Nc1cccc(Cl)c1
IC50 [33]: 12.9 µM (inactive)
IC50 [21]: > 69.4 µM (inactive)

CNC(=O)[C@@H](NC(=O)[C@H](CC(C)C)[C@H](O)C(=O)NO)C(C)(C)C
IC50 [34]: 0.0607 µM (active)
IC50 [33]: 0.0358 µM (active)

CCCCCCn1c(=O)c(C(=O)Nc2ncccc2C)c(O)c2ccccc21
AC50 [22]: 3.78 µM (active)
AC50 [35]: 7.92 µM (active)
AC50 [23]: 5.77 µM (active)
EC50 [26]: 0.566 µM (active)
EC50 [28]: 1.98 µM (active)
AC50 [11]: 4.02 µM (active)
AC50 [12]: 5.24 µM (active)
AC50 [36]: 28.6 µM (active)
